Results as given in patent publication US9902938B2, “Method for inducing exocrine pancreatic cells” (Kyoto University, priority 2012, dated 2018).

Key:
[1] = tested on: PDX1-positive pancreatic precursor cells; assay: Induction of exocrine pancreatic cells from human ES cell-derived pancreatic precursor cells (Example 1, anti-amylase immunostaining); type: cell-based; settings: human ES cells (KhES3)
Method: Human ES cells (KhES3) received from Kyoto University (Kyoto, Japan) were cultured by a conventional method (Mori H, et al., Biochem Biophys Res Commun. 2006, 345, 926-932). ES cells were cultured on 6-cm dishes to 80%-90% confluency, and then 1 mL of Accutase™ was added to disperse ES cells into single cells.
ES cells dispersed into single cells were induced to differentiate into exocrine pancreatic cells according to protocols shown in FIG. 1. Specifically, the following 5 steps were carried out.
(Stage 1) ES cells were suspended in a RPMI1640 medium containing 2% B27 and Penicillin/Streptomycin, and then seeded in a matrigel-coated 24-well plate at 250,000/well. 100 ng/ml, Activin A and 1 μM CHIR99021 were added to adjust the amount of the medium to be 0.5 mL/well, and then cells were cultured for […].
(Stage 2-1) The medium was substituted with DMEM containing 50 ng/ml FGF10, 0.25 μM KAAD (3-Keto-N-(aminoethyl-aminocaproyl-dihydro-cinnamoyl))-cyclopamine, 1% L-Glutamin, 2% B27, 50 mU/L Penicillin and 50 μg/L Streptomycin, and then cells were cultured for 1 day.
(Stage 2-2) The medium was substituted with DMEM containing 2 μM retinoic acid, 50 ng/ml FGF10, 0.25 μM KAAD-cyclopamine, 1% L-Glutamin, 2% B27, 50 mU/L Penicillin and 50 μg/L Streptomycin, and then cells were cultured for 2 days.
(Stage 2-3) The medium was substituted with DMEM containing 50 ng/ml FGF10, 300 nM (−)-indolactam V (ILV), 1% L-Glutamin, 2% B27, 50 mU/L Penicillin and 50 μg/L Streptomycin, and then cells were cultured for 4 days.
(Stage 3) The medium was substituted with DMEM containing 1 μM CHAP108 (formula 10), 300 nM ILV, 1% L-Glutamin, 2% B27, 50 mU/L Penicillin and 50 μg/L. Streptomycin, and then cells were cultured for 4 days or 8 days.
The result obtained by culturing cells for 12 days in Stage 3 with the use of the ligand protein for a Notch signal, 0.5 mg/ml hDLL4 or 0.5 mg/ml hJAG1, instead of CHAP108 was compared with the result obtained by culturing cells for 4 days in Stage 3 with the use of CHAP108. […]

[2] = tested on: PDX1-positive pancreatic precursor cells; assay: Induction of exocrine pancreatic cells by modified protocol (Example 2, immunostaining with anti-Amylase); type: cell-based; settings: Stage 3 culture 2 days, 1 μM CHAP108 with 300 nM ILV; human ES cells (KhES3); DMSO negative control 2.8%
Method: ES cells (KhES3) dispersed into single cells were induced to differentiate into exocrine pancreatic cells according to modified protocols shown in FIG. 1. Specifically, the following 5 steps were carried out.
(Stage 1) ES cells were suspended in a RPMI1640 medium containing 2% B27 and Penicillin/Streptomycin, and then seeded in a matrigel-coated 24-well plate at 250,000/well. 100 ng/mL Activin A and 1 μM CHIR99021 were added to adjust the amount of the medium to be 0.5 mL/well, and then cells were cultured for 4 days.
(Stage 2-1) The medium was substituted with DMEM containing 50 ng/ml […], 0.25 μM KAAD (3-Keto-N-(aminoethyl-aminocaproyl-dihydro-cinnamoyl))-cyclopamine, 1% L-Glutamin, 2% B27, 50 mU/L Penicillin and 50 μg/L Streptomycin, and then cells were cultured for 1 day.
(Stage 2-2) The medium was substituted with DMEM containing 2 μM retinoic acid, 50 ng/ml FGF10, 0.25 μM KAAD-cyclopamine, 1% L-Glutamin, 2% B27, 50 mU/L Penicillin and […] Streptomycin, and then cells were cultured for 2 days.
(Stage 2-3) The medium was substituted with DMEM containing 50 ng/ml FGF10, 300 nM (−)-indolactam V (ILV), 1% L-Glutamin, 2% B27, 50 mU/L Penicillin and 50 μg/L Streptomycin, and then cells were cultured for 2 days. […]

[3] = Stage 3 culture 12 days, 0.5 mg/ml ligand protein instead of CHAP108

Compound	efficiency for inducing exocrine pancreatic cells [1, 3] [%]	efficiency for inducing exocrine pancreatic cells ([1]; Stage 3 culture 4 days, 1 μM CHAP108 with 300 nM ILV) [%]	Amylase positive rate [2] [%]
hDLL4: ligand protein for a Notch signal receptor, member of the Delta-like family	28.8		
hJAG1: ligand protein for a Notch signal receptor, member of the Jagged family	27.0		
CCC(C)C1NC(=O)C(Cc2ccc(OC)cc2)NC(=O)C(CCCCCN(O)C=O)NC(=O)C2CCCCN2C1=O (stereo not shown) [CHAP108]		21.4	56.3
